Source: article PMC6508677, “Identification of druggable small molecule antagonists of the Plasmodium falciparum hexose transporter PfHT and assessment of ligand access to the glucose permeation pathway via FLAG-mediated protein engineering” (PLoS ONE, 2019)
“And” between values parts separate entries of the source, which are not always exact repeats. Equal entries are not always repeated. Where two headings read alike, the source gives them in different places.

Tests used:
[1] = target: T1, hGLUT4 (Homo sapiens, UniProt P14672); test: 2-DG uptake by HEK293 cells overexpressing hGLUT4; type: cell-based; conditions: for remaining activity at 0.001 µM: 0.001 µM compound; for remaining activity at 0.001 µM / remaining activity at 1.25 µM / remaining activity at 2.5 µM / remaining activity at 5 µM / remaining activity at 10 µM / remaining activity at 20 µM / remaining activity at 40 µM / remaining activity at 80 µM / remaining activity at 160 µM / remaining activity at 225 µM: read-out: 2-DG uptake (percent uptake relative to vehicle), AVE per experiment; for remaining activity at 1.25 µM: 1.25 µM compound; for remaining activity at 20 µM: 20 µM compound; for remaining activity at 40 µM: 40 µM compound; for remaining activity at 80 µM: 80 µM compound; for remaining activity at 160 µM: 160 µM compound; for remaining activity at 225 µM: 225 µM compound; for IC50: IC50 for inhibition of 2-DG uptake
T1 construct: expressed in transfected cells; host or cells: HEK293 (HEK293-FLIP, native hGLUT1 knocked down by shRNA)
T1 sequence (P14672 1-509): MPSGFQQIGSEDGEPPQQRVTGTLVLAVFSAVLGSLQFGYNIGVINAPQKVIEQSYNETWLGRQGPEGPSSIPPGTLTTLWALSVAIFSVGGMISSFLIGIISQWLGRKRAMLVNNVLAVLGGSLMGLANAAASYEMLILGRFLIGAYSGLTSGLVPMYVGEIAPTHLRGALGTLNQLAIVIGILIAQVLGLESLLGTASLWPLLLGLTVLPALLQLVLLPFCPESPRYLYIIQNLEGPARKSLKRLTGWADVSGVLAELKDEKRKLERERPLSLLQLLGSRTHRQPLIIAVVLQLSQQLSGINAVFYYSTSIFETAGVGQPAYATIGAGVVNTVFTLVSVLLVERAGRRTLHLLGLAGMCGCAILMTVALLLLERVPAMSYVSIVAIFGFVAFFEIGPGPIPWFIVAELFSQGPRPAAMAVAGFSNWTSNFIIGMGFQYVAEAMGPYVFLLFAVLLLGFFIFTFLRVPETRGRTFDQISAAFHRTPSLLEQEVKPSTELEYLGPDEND
Source text: (§1) Generation of HEK293 cells overexpressing PfHT and human GLUTs 1–4 were described elsewhere. Briefly, HEK293 cells were transfected with pcDNA3.1 FLII12Pglu-7006 (Addgene), containing the fluorescence resonance energy transfer (FRET) glucose sensor (HEK293-FLIP) and PfHT, human GLUT1 (hGLUT1), hGLUT2, hGLUT3, hGLUT4, hGLUT5 or hGLUT8 using Optifect (Life Technologies) according to manufacturer’s specifications. To increase retention of GLUT8 at the plasma membrane, the dileucine sorting signal E^7E^8XXXLL was modified to R^7R^8XXXLL as described in [17]. Stable transfectants were selected for G418 and hygromycin resistance to select for FRET sensor and hexose transporter, respectively. HEK293-FLIP cells were also used to generate cells stably transfected with FLAG-tagged PfHT (FTPfHT). FLAG tag ([…]) followed by a triple glycine linker and a tobacco etch virus (TEV) protease site (ENLYFQS) followed by a triple glycine linker was added to the N-terminus of PfHT via PCR [18] using Phusion Hot Start II High-Fidelity DNA Polymerase (Fisher Scientific). Single clones were selected by comparing their abilities to transport glucose as assayed via FRET and radiolabeled hexose uptake. In all cell lines, except for HEK293 cells overexpressing hGLUT1 and hGLUT5, native hGLUT1 was knocked down using shRNA as described elsewhere. Transcript levels of the individual GLUTs expressed in each cell line are as described in [13, 15] and in S1 Fig.
(§2) Glucose uptake by P. falciparum was performed essentially as described. P. falciparum strain 3D7 was cultured in 100 mm tissue culture dishes (Techno Plastic Products) in a 2% suspension of human erythrocytes and RPMI 1640 medium until reaching > 7.5% parasitemia. Cells were pelleted via centrifugation and resuspended in RPMI 1640 medium. To determine the uptake of radiolabeled glucose into the parasite, parasites were isolated from infected erythrocytes by permeablization with saponin (0.05 w/v), followed by centrifugation, aspiration of supernatant and washing of the pellet 3X with saline solution (135 mM NaCl, 2 mM KCl, 25 mM HEPES, 0.2 mM glucose and 1 mM MgCl2; pH 7.1) to remove cellular debris. WU-1 or DMSO vehicle were added to 100 μl parasites (resuspended in saline) 5 min prior to the addition of 100 μl [^14C]2-DOG (0.2- μCi/ml final concentration). 2-DG uptake was stopped after 2 min by layering the entire reaction over 300 μl of an oil mixture (5:4 mix of dibutyl phthalate / dinonyl phthalate) in Eppendorf tubes and centrifuged at 15,850 × g for 2 mins. The ratio of the estimated intracellular concentration of radiolabel relative to the extracellular concentration were calculated as described. Uptake of radiolabeled hexose into HEK293 cells was measured in glucose-free HBSS as described previously. Briefly, cells were plated at 400,000 cells/well overnight at 37°C in 24-well plates pre-treated with PEI. After 30-min incubation at 37°C in glucose-free HBSS in the presence of vehicle or increasing concentrations of compound, 2-DG uptake was measured in glucose-free HBSS for 4 min at 37°C. Cultures were washed in ice-cold 1X PBS and lysed in 0.1% Triton X-100 in 1X PBS. Radiolabeled hexose uptake was determined by liquid scintillation counting (Ultima Gold, Thermo Fisher) and normalized to total protein per well. Uptake data are plotted as percent uptake relative to vehicle-treated cells. Kinetic analyses were performed using the indicated concentrations of substrate and WU-1, with quenching of uptake after 1 min incubation. Incubation times had been previously determined as being in the linear range of time-dependent radiolabeled hexose uptake (2 min for 2-DG uptake into freed parasites; 2 and 4 min for D-Frc and 2-DG uptake HEK cell lines, respectively). Data were fit by least squares nonlinear regression analysis using GraphPad Prism 6.0 software.

[2] = target: T2, hGLUT1 (Homo sapiens, UniProt P11166); test: 2-DG uptake by HEK293 cells overexpressing hGLUT1; type: cell-based; conditions: for IC50 for inhibition of 2-DG uptake: GLUT1 cell line; for inhibition at 5 µM: 5 μM compound
T2 construct: expressed in transfected cells; host or cells: HEK293 (HEK293-FLIP); native hGLUT1 not knocked down in this line
T2 sequence (P11166 1-492): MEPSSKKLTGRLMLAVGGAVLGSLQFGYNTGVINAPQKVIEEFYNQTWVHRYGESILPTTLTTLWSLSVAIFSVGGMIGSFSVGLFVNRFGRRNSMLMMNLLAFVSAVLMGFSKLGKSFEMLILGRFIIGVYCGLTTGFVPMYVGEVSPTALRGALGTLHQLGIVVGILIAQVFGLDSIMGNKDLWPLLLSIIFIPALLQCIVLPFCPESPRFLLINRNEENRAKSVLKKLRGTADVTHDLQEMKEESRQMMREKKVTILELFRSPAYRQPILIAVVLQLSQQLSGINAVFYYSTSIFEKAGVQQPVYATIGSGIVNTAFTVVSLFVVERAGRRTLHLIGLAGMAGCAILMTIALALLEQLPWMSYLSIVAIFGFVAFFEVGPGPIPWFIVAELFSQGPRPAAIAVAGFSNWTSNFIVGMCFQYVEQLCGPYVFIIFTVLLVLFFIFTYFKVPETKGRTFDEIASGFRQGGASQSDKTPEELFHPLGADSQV
Source text: as §1, §2

[3] = HEK293, 4 min, GLUT4, 2.5 µM compound
[4] = HEK293, 4 min, GLUT4, 5 µM compound
[5] = HEK293, 4 min, GLUT4, 10 µM compound
[6] = GLUT4 cell line, mean/reported value
[7] = HEK293, 4 min, GLUT1, read-out: % Inhibition of 2-DG uptake vs vehicle

| SMILES | remaining activity at 0.001 µM ([1]; HEK293, 4 min, GLUT4) [%] | remaining activity at 1.25 µM ([1]; HEK293, 4 min, GLUT4) [%] | remaining activity at 2.5 µM [1, 3] [%] | remaining activity at 5 µM [1, 4] [%] | remaining activity at 10 µM [1, 5] [%] | remaining activity at 20 µM ([1]; HEK293, 4 min, GLUT4) [%] | remaining activity at 40 µM ([1]; HEK293, 4 min, GLUT4) [%] | remaining activity at 80 µM ([1]; HEK293, 4 min, GLUT4) [%] | remaining activity at 160 µM ([1]; HEK293, 4 min, GLUT4) [%] | remaining activity at 225 µM ([1]; HEK293, 4 min, GLUT4) [%] | IC50 [1, 6] [µM] | 2-DG uptake (percent uptake relative to vehicle) ([2]; GLUT1, 0.001 µM compound) | 2-DG uptake (percent uptake relative to vehicle) ([2]; GLUT1, 1.25 µM compound) | 2-DG uptake (percent uptake relative to vehicle) ([2]; GLUT1, 2.5 µM compound) | 2-DG uptake (percent uptake relative to vehicle) ([2]; GLUT1, 5 µM compound) | 2-DG uptake (percent uptake relative to vehicle) ([2]; GLUT1, 10 µM compound) | 2-DG uptake (percent uptake relative to vehicle) ([2]; GLUT1, 20 µM compound) | 2-DG uptake (percent uptake relative to vehicle) ([2]; GLUT1, 40 µM compound) | 2-DG uptake (percent uptake relative to vehicle) ([2]; GLUT1, 80 µM compound) | 2-DG uptake (percent uptake relative to vehicle) ([2]; GLUT1, 160 µM compound) | further results |
| --- | --- | --- | --- | --- | --- | --- | --- | --- | --- | --- | --- | --- | --- | --- | --- | --- | --- | --- | --- | --- | --- |
| Cc1ccc(S(=O)(=O)CCNC(=O)c2c(-c3c(Cl)cccc3Cl)noc2C)cc1 [WU-1, 3-(2,6-dichlorophenyl)-5-methyl-N-[2-(4-methylbenzenesulfonyl)ethyl]-1,2-oxazole-4-carboxamide] | 100 | 99.2 | 96.1 | 89.1 | 94 | 88.4 | 86.8 | 74.7 | 64.7 | 61.9 | > 100 | 100 | 99.74 | 109.88 | 102.1 | 100.82 | 110.03 | 120.62 | 121.35 | 125.18 | IC50 for inhibition of 2-DG uptake, individual experiments ([1]; GLUT4, Expt 1-3): ambiguous; remaining activity at 5 µM ([1]; HEK293, 4 min): 102%; remaining activity at 10 µM ([1]; HEK293, 4 min): 83.2%; inhibition at 5 µM ([1]; HEK293, 4 min, read-out: % Inhibition of 2-DG uptake vs vehicle): -1.91%; 2-DG uptake (percent uptake relative to vehicle) ([2]; GLUT1, 225 µM compound): 132.09; IC50 for inhibition of 2-DG uptake [2]: n.i.; inhibition at 5 µM [2, 7]: -2.1% |
| COc1c(Br)cc([N+](=O)[O-])c(OC)c1C(=O)NC(=O)Nc1c(C)cccc1Cl [WU-2, 3-(3-bromo-2,6-dimethoxy-5-nitrobenzoyl)-1-(2-chloro-6-methylphenyl)urea] | 100 | 95.3 | 91.7 | 86.8 | 88.3 | 74.1 | 66.7 | 61 | 55.7 | 63.7 | 18.5 ± 3.5 | 100 | 114.79 | 107.57 | 107.75 | 114.4 | 108.02 | 132.21 | 130.08 | 118.85 | Maximum Inhibition (%) ([1]; 2-DG uptake, GLUT4 cell line): 40.0%; inhibition at 5 µM ([1]; HEK293, 4 min, GLUT4, 5 µM compound, read-out: % Inhibition of 2-DG uptake vs vehicle): 10 to 12%; IC50 ([1]; individual experiments, GLUT4, Expt 1-3): 14.2 µM and 25.4 µM and 15.9 µM; 2-DG uptake (percent uptake relative to vehicle) ([2]; GLUT1, 225 µM compound): 129.55; IC50 for inhibition of 2-DG uptake [2]: n.i.; inhibition at 5 µM [2, 7]: -7.75% |
| COc1cc(/C=N/NC(=O)c2cc(-c3ccccc3)sc2N)cc(OC)c1OC [WU-3, 2-amino-5-phenyl-N'-[(E)-(3,4,5-trimethoxyphenyl)methylidene]thiophene-3-carbohydrazide] | – | – | – | – | – | – | – | – | – | – | – | – | – | – | – | – | – | – | – | – | inhibition at 10 µM ([2]; HEK293, 4 min, GLUT1, 10 μM compound, read-out: % Inhibition of 2-DG uptake vs vehicle): ≥ 50% |
| COc1cc(/C=C2\COC/C(=C\c3cc(OC)c(OC)c(OC)c3)C2=O)cc(OC)c1OC [WU-5, (3E,5E)-3,5-bis[(3,4,5-trimethoxyphenyl)methylidene]oxan-4-one] | – | – | – | – | – | – | – | – | – | – | – | – | – | – | – | – | – | – | – | – | inhibition at 2.5 µM ([1]; HEK293, 4 min, GLUT4, 2.5 µM compound, read-out: % Inhibition of 2-DG uptake vs vehicle): ~45%; inhibition at 2.5 µM ([2]; HEK293, 4 min, GLUT1, 2.5 μM compound, read-out: % Inhibition of 2-DG uptake vs vehicle): 2.94% |
